± gives the expanded uncertainty stated by the source.
Key:
[1] = refractive index (Na D-line) (dimensionless); conditions: 298.15 K; 101.33 kPa; Liquid; Standard Abbe refractometry
[2] = Liquid; for mass density: 298.15 K, 101.33 kPa; for vapor or sublimation pressure: Ebulliometric method (Recirculating still)

Row | refractive index [1] | mass density [2] | vapor or sublimation pressure ([2]; 418.69 K) | vapor or sublimation pressure ([2]; 341.49 K) | vapor or sublimation pressure ([2]; 355.35 K) | Compound
1 | 1.3992 ± 0.0005 | 870.88 ± 0.65 kg/m3 | 101.3 ± 0.3 kPa |  |  | CCCCOC(=O)CC [butyl propanoate]
2 | 1.3652 ± 0.0005 | 718.32 ± 0.96 kg/m3 |  | 101.3 ± 0.3 kPa |  | CC(C)OC(C)C [diisopropyl ether]
3 | 1.3754 ± 0.0005 | 782.69 ± 0.24 kg/m3 |  |  | 101.3 ± 0.2 kPa | CC(C)O [propan-2-ol]

Reference: the NIST ThermoML archive (doi:10.1021/je900042q)
